Among the test systems are BT-549 breast; MCF7 breast; DU-145 prostate; SNB-75 CNS; HCT-116 colon; SF-295 CNS; SK-MEL-28 melanoma; SN12C renal; COLO 205 colon; UACC-257 melanoma.
Holding throughout (assay): NCI tumour cell line growth inhibition, 48 h

The record followed here is PubChem BioAssay (NCI).

Structures are written as SMILES.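 These data come from cells grown in 96-well plates and exposed to compound for 48 hours at five concentrations. GI50 = concentration required for 50% inhibition of growth. TGI: total growth inhibition.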 A value given as a limit tells only on which side of the number the result lay.

In the case of `Cc1cn2c(/C=C3/C(=O)Nc4c3ccc3ccccc43)c(C(F)(F)F)nc2s1`, the GI50 in the assay on BT-549 breast is 1.18 µM; with MCF7 breast, 0.449 µM; with DU-145 prostate it was 1.67 µM; in the assay on SNB-75 CNS, 0.582 µM; with HCT-116 colon, 2.19 µM; with SF-295 CNS, 0.494 µM. The GI50 in the assay with SK-MEL-28 melanoma is 2.7 µM; with SN12C renal, 4.75 µM; with COLO 205 colon, 0.398 µM; in the assay with UACC-257 melanoma it was above 100 µM. The TGI with BT-549 breast, in the assay with MCF7 breast, in the assay on DU-145 prostate, in the assay on SNB-75 CNS, in the assay on HCT-116 colon and with SF-295 CNS was above 100 µM in each case. The TGI is above 100 µM with SK-MEL-28 melanoma, above 100 µM with SN12C renal, 1.9 µM in the assay on COLO 205 colon and above 100 µM with UACC-257 melanoma.

Regarding `C/C(=C\c1ccn(-c2ccccc2N)n1)[C@@H]1C[C@@H]2O[C@]2(C)CCC[C@H](C)[C@H](O)[C@@H](C)C(=O)C(C)(C)[C@@H](O)CC(=O)O1`, the GI50 in the assay with BT-549 breast was 0.116 µM; in the assay with MCF7 breast it was 0.0168 µM; in the assay with DU-145 prostate it was 0.0564 µM; in the assay with SNB-75 CNS it was 0.00907 µM; with HCT-116 colon it was 0.0191 µM; in the assay on SF-295 CNS, 0.0797 µM. In addition, the GI50 is 1.07 µM with SK-MEL-28 melanoma, 0.145 µM with SN12C renal and 0.0212 µM with COLO 205 colon. Further, the TGI with BT-549 breast is above 13.1 µM; in the assay on MCF7 breast, above 50 µM; with DU-145 prostate it was 0.402 µM; in the assay with SNB-75 CNS, 0.186 µM; in the assay with HCT-116 colon, above 50 µM; with SF-295 CNS it was above 50 µM. Moreover, the TGI is above 50 µM in the assay on SK-MEL-28 melanoma, above 50 µM in the assay with SN12C renal, 0.641 µM in the assay with COLO 205 colon and above 50 µM with UACC-257 melanoma.

As to `OCCCCC#Cc1ccccc1C#Cc1ccc(O)cc1`, the GI50 with BT-549 breast was 14.1 µM; in the assay on MCF7 breast it was 17.4 µM; with DU-145 prostate it was 16.8 µM; in the assay on SNB-75 CNS, 13.6 µM; in the assay with HCT-116 colon, 16.6 µM; with SF-295 CNS it was 16.2 µM. Further, the GI50 with SK-MEL-28 melanoma is 14.2 µM; in the assay on SN12C renal, 18.8 µM; with COLO 205 colon it was 21.6 µM; in the assay with UACC-257 melanoma, 18.5 µM. The TGI in the assay with BT-549 breast was determined as 28.8 µM; with MCF7 breast it was 49.2 µM; in the assay with DU-145 prostate, 33.6 µM; in the assay with SNB-75 CNS, 29.3 µM; in the assay on HCT-116 colon it was 31.8 µM; in the assay on SF-295 CNS, 32 µM. Further, the TGI was determined as 27.8 µM in the assay with SK-MEL-28 melanoma, 34.8 µM in the assay on SN12C renal, 45.9 µM with COLO 205 colon and 33.9 µM in the assay with UACC-257 melanoma.

Regarding `CN(C)C(=O)Nc1nc2cc(Cl)c(Cl)cc2[nH]1`, the GI50 in the assay on BT-549 breast is 2.79 µM; with MCF7 breast it was 0.367 µM; in the assay on DU-145 prostate, 2.02 µM; in the assay on SNB-75 CNS, 3.08 µM; with HCT-116 colon, 0.463 µM; in the assay on SF-295 CNS, 0.603 µM. Moreover, the GI50 was 8.63 µM with SK-MEL-28 melanoma, 1.36 µM in the assay with SN12C renal, 0.661 µM with COLO 205 colon and above 100 µM with UACC-257 melanoma. The TGI with BT-549 breast was above 100 µM; in the assay with MCF7 breast it was above 100 µM; with DU-145 prostate, 24.9 µM; in the assay on SNB-75 CNS, above 35.2 µM; in the assay on HCT-116 colon it was above 35 µM; with SF-295 CNS it was 39.1 µM. Further, the TGI with SK-MEL-28 melanoma is above 100 µM; in the assay with SN12C renal, above 100 µM; in the assay on COLO 205 colon, 5.08 µM; in the assay on UACC-257 melanoma, above 100 µM.
